From US7510825B2, “Kits and methods for detection of apoptotic cells” (NST NeuroSurvival Technologies Ltd, priority 2000, dated 2009)

Tested on: Jurkat cells (T-cell leukemia)
Experiment: Binding of DDC and PI to Jurkat cells treated with CD95, confocal microscopy
Type: cell-based, human
Settings: CD95 for 180 minutes; confocal microscope
Procedure: For microscopic analysis the concentration of cells should be within 1-2×10^7/ml. […] If fixation is needed, it should be performed after DDC staining. • 1. Adjusting the cells to 1-2×10^7/ml in buffer. • 2. Transferring 96 μl from the cell suspension to an eppendorf and staining the cells by adding 4 μl from the DDC solution. Incubating for 10-40 minutes at RT protected from light. • 3. A double labeling could be conducted with PI, if desired. In such a case, 1 μl is added from the PI solution. • 4, Placing the cell suspension on a glass slide. Covering the cells with a glass coverslip. Alternatively, for analyzing adherent cells, cells may grow directly on coverslip. Staining the cells by incubation with DDC (4 μl of DDC/96 μl buffer reaction) or 10-40 minutes and PI (1 μl). […] Observing the cells under fluorescent or confocal microscope equipped with the appropriate UV filter (excitation at 360-370 nm, band pass, and emission at 420 nm, barrier filter. Using a Triple filter (Hoechst/FITC/Texas Red) allows concomitant observation of both DDC and PI. Quantitative Assay for DDC Accumulation using Fluorescene Spectroscopy
Jurkat cells (T-cell leukemia) were treated with CD95 for 180 minutes and incubated with DDC followed by incubation with Propidium Iodide (PI) as detailed in DDC protocols IIIC. The cells were analyzed under fluorescent confocal microscope using a UV filter. […]

CC[N+](C)(CC)CCC[n+]1c(-c2ccccc2)c2cc(N)ccc2c2ccc(N)cc21.[I-].[I-] [PI, Propidium Iodide, reference compound]
cellular staining pattern in apoptotic cells: Nuclear staining by PI can be seen only in late apoptotic cells
